Reference: patent publication US12678438B2, “Treatment of cancer with CDK inhibitors” (THE TRUSTEES OF THE UNIVERSITY OF PENNSYLVANIA, priority 2019, dated 2026)

Assays:
[1] = system: DHT-induced AR target genes; experiment: RNA-seq of DHT-stimulated VCaP and LNCaP cells; type: cell-based, human; settings: 10 nM DHT with 100 nM THZ1
Description: For AR signaling stimulation experiments, cells were plated in complete media at required confluency. After 24 h cells were washed with DPBS and cultured in RPMI/DMEM without Phenol Red (Invitrogen, 11835030) and 10% charcoal-dextran stripped FBS (Gemini BioProducts, 100-119) for 72 h. Cells were then stimulated with 10 nM DHT for the specific time points.
RNA-seq libraries were constructed using the TruSeq sample Prep Kit V2 (Illumina) according to the manufacturer's instructions. Briefly, 1 μg of purified RNA was poly-A selected and fragmented with fragmentation enzyme. […] The DNA library was quantitated using Qubit and normalized to 4 nM prior to pooling. […] Library pools were clustered and run on Nextseq500 platform (Illumina Inc.) with single-end reads of 75 bases.
Single-end sequencing reads were demultiplexed using Illumina bcl2fastq, quality checked using FASTQC (bioinformatics.babraham ac uk/projects/fastqc), and aligned to the GRCh37 (release 27) genome using the STAR v2.5.1 aligner, with default settings. The read statistics generated by STAR v2.5.1 was used to ensure that the aligned reads in all samples were over 90% of the total reads. […]
Genes differentially expressed between any two sets of treatment were determined using DESeq2 (bioconductor.org/packages/release/bioc/html/DESeq.html), a statistical tool that employs shrinkage estimates to compute fold changes. […]

[2] = system: AR-negative DU145 xenografts; experiment: DU145 mouse xenograft; type: in vivo; settings: 10 mg/kg b.i.d., four weeks
Description: In vivo efficacy studies were performed in accordance with protocols approved by the Institutional Animal Care and Use Committee (IACUC) at the University of Pennsylvania and in compliance with all regulatory standards. Four to five-week-old male NOD SCID gamma mice (Jackson Lab, 005557) were procured from Jackson Laboratory. In the VCaP experiment, 2×10^6 VCaP prostate cancer cells suspended in 80 μL of RPMI-1640 with 50% Matrigel (BD Biosciences) were implanted subcutaneously into the dorsal flank of the mice. The animals were castrated when the tumor volumes reached approximately 150 mm^3. […] Tumor growth was recorded using digital calipers and tumor volumes were estimated using the formula (π/6) (L×W^2), where L=length and W=width of tumor. Body weight during the study was also monitored. At the end of the treatment regimen the mice were sacrificed and were extracted for further analysis.
Xenograft tumor pieces were fixed in 4% of formaldehyde for 48 h and paraffin embedded. Paraffin embedded sections from the tumors of treated and untreated mice were deparaffinized, rehydrated and subjected to epitope retrieval stained with a phospho-MED1 antibody (1:4000/1:2000), anti-PSA antibody (1:1000), anti-Ki67 (1:500), or anti-cleaved caspase3 antibody (1:1000) followed by peroxidase-based detection and counterstaining with hematoxylin using the Leica Bond Rxm system. Photographs were taken on a Leica DMI6000B inverted light and fluorescent microscope with a 20× objective. images were assessed and quantified in ImageJ.

[3] = system: MED1-AR complex; experiment: Immunoprecipitation of endogenous MED1-AR complex; type: cell-based, human; settings: VCaP and LNCaP nuclear extracts, 100 nM THZ1, 6 h
Description: For endogenous immunoprecipitation experiments, nuclear extracts were obtained from VCaP and LNCaP cells using NE-PER nuclear extraction kit (Thermo Scientific, 78835). Nuclear pellet was then lysed in IP buffer (20 mM Tris pH7.5, 150 mM NaCl, 1% Triton-X 100, Protease/Phosphatase Inhibitor) by sonication. Nuclear lysates (0.35-1.0 mg) were pre-cleaned by incubation with protein G Dynabeads (Life Technologies) for 1 h on a rotator at 4° C. 5 μg antibody was added to the pre-cleared lysates and incubated on a rotator at 4° C. overnight. Protein G Dynabeads were then added for 1 h. Beads were washed twice in IP buffer, containing 300 mM NaCl, and resuspended in 40 μL of 2× loading buffer and boiled at 95° C. for […] for separation of the protein and beads. Samples were then analyzed by SDS-PAGE and western blotting as described above.

[4] = system: chromatin-bound p-MED1/MED1; experiment: Chromatin-bound protein extraction and immunoblot; type: cell-based, human; settings: DHT-stimulated LNCaP, 6 h; THZ1 100 nM, enzalutamide 5 μM
Description: Chromatin bound protein extraction was performed following the protocol described in Pawar et al. Briefly, 10 million cells were collected and washed with DPBS, and were resuspended in 250 μl Buffer A (10 mM HEPES pH 7.9, 10 mM KCl, 1.5 mM MgCl2, 0.34 M sucrose, 10% glycerol, 1 mM DTT) supplemented with 0.1% TritonX-100 and incubated on ice for 10 min. The nuclei pellet was collected by centrifugation at 1300×g for 5 min at 4° C., washed in Buffer A and centrifuged again with the same settings. The nuclear pellet was then resuspended in Buffer B (3 mM EDTA, 0.2 mM EGTA, 1 mM DTT) and incubated on ice for 30 min. The chromatin pellet was collected by centrifugation at 1700×g for 5 min at 4° C., washed in Buffer B and centrifuged again with the same settings. The proteins were incubated on ice in Buffer B with 150 mM NaCl for 20 min and centrifuged at 1700×g for 5 min to remove proteins soluble in 150 mM salt concentrations. The pellet was then incubated in Buffer B with 300 mM NaCl on ice for 20 min and centrifuged again at 1700×g to obtain the final chromatin pellet. The chromatin pellet was dissolved in sample buffer, sonicated for 15 seconds, and boiled at 95° C. for 10 min. Samples were analyzed using Immunoblot analysis as described previously. All buffers were supplemented with Pierce protease inhibitor and Halt protease & phosphatase inhibitors.

[5] = system: LNCaP cells; experiment: RNA-seq gene expression profiling; type: cell-based, human; settings: 100 nM THZ1, 24 h
Description: (§1) RNA-seq libraries were constructed using the TruSeq sample Prep Kit V2 (Illumina) according to the manufacturer's instructions. Briefly, 1 μg of purified RNA was poly-A selected and fragmented with fragmentation enzyme. After first and second strand synthesis from a template of poly-A selected/fragmented RNA, other procedures from end-repair to PCR amplification were performed according to the instructions given in the protocol. Libraries were purified and validated for appropriate size on a 2100 Bioanalyzer DNA 1000 chip (Agilent Technologies, Inc.). The DNA library was quantitated using Qubit and normalized to 4 nM prior to pooling. Libraries were pooled in an equimolar fashion and diluted to a final concentration of 1.8 pM. Library pools were clustered and run on Nextseq500 platform (Illumina Inc.) with single-end reads of 75 bases.
(§2) Single-end sequencing reads were demultiplexed using Illumina bcl2fastq, quality checked using FASTQC (bioinformatics.babraham ac uk/projects/fastqc), and aligned to the GRCh37 (release 27) genome using the STAR v2.5.1 aligner, with default settings. The read statistics generated by STAR v2.5.1 was used to ensure that the aligned reads in all samples were over 90% of the total reads. The transcripts were assembled using cufflinks and the count and FPKM tables were computed using cuffnorm. Principal component analysis on the FPKM values was used to cluster the samples for further quality check.
(§3) Genes differentially expressed between any two sets of treatment were determined using DESeq2 (bioconductor.org/packages/release/bioc/html/DESeq.html), a statistical tool that employs shrinkage estimates to compute fold changes. In all our calculations, the raw RNA-seq read counts from biological duplicates, for each treatment condition, was used as the input for DESeq2.

[6] = system: DU145 cells; experiment: RNA-seq gene expression profiling; type: cell-based, human; settings: DU145, 100 nM THZ1, 24 h
Description: as §1, §2, §3

[7] = system: VCaP cells; experiment: RNA-seq gene expression profiling; type: cell-based, human; settings: 100 nM THZ1, 24 h
Description: as §1, §2, §3

With `CN(C)C/C=C/C(=O)Nc1ccc(C(=O)Nc2cccc(Nc3ncc(Cl)c(-c4c[nH]c5ccccc45)n3)c2)cc1` [THZ1] the “genome-wide DHT-induced differentially expressed AR target genes” value [1] was “completely reversed almost all”, the “tumor Ki-67” value ([2]; vs vehicle) was “lower Ki-67” and the tumor apoptosis ([2]; vs vehicle) was “increased apoptosis”. For the same molecule, the “tumor p-MED1 levels” value ([2]; vs vehicle) was “reduced p-MED1 levels”, the tumor growth ([2]; castrated mice) was “tumor growth inhibition” and the “endogenous MED1-AR complex formation” value [3] was “loss of endogenous MED1-AR complex formation”. For the same molecule, the “chromatin-bound levels of p-MED1/MED1” value [4] was “complete loss in the chromatin-bound levels of p-MED1/MED1”, the “genes down (RNA-seq)” value [5] was 1695 and the “genes up (RNA-seq)” value [5] was 2612. The “genes down (RNA-seq)” value [6] was 190, the “genes up (RNA-seq)” value [6] was 191 and the “genes down (RNA-seq)” value [7] was 1203. The “genes up (RNA-seq)” value [7] was 1325.
